These results are taken from patent publication US20250320252A1 (The Scripps Research Institute, priority 2021, published 2025).

Read-outs that look alike come from different tables or passages of the source. Numbered stars: 1 amine (or outer) side, 2 acyl side, 3 side chain; on linkers, the order of the positions; unused ones are H or OH. Bridge positions count the residues as written; N and C are the ends. Square brackets hold non-standard residues; d marks the D form. Peptide text beside a SMILES is read from it. X2 = O=C(O)CCCCCCCCCCCCCCCCCCC(=O)N[C@@H](CCCCNC(=O)CCOCCOCCNC(=O)CCOCCOCCNC(=O)CCC(=O)N(CCNC(=O)C[*:1])CCNC(=O)C[*:2])C(=O)O; X1 = O=C(O)CCCCCCCCCCCCCCCCC(=O)N[C@@H](CCCCNC(=O)CCOCCOCCNC(=O)CCOCCOCCNC(=O)CCC(=O)N(CCNC(=O)C[*:1])CCNC(=O)C[*:2])C(=O)O; Aib = CC(C)(N)C(=O)O

For assay [1], the target named is T1, human GLP-1R (Homo sapiens, UniProt P43220).
T1 construct: expressed in transfected cells
Kind of assay: In vitro receptor activation reporter assay (CRE-Luc), HEK293-GLP-1R-CRE. It is filed as cell-based.
Description: (§1) The EC50 of each peptide was determined using GraphPad Prism 6 software (GraphPad, San Diego, CA).
HEK293 cells were infected with lentivirus encoding firefly luciferase gene under the control of cAMP responsive element (CRE) promoter (Qiagen, The Netherlands) and then were selected using 1 g/mL puromycin (Life Technologies, Carlsbad) for 1 week. The surviving cells (referred to as CRE-HEK293) were expanded and then transfected with a G418 selective mammalian expression plasmid encoding human GLP-1R. In brief, GLP-1R plasmid was transfected into CRE-HEK293 cells using Lipofectamine 2000 and selected with 400 g/mL Geneticin (Life Technologies, Carlsbad, CA). Single colony stable cell line overexpressing CRE-luciferase and GLP1R was then established for in vitro activity assay.

Assay [2] addresses T2, human GIPR (Homo sapiens, UniProt P48546).
T2 construct: expressed in transfected cells
T2 sequence (P48546 22-466): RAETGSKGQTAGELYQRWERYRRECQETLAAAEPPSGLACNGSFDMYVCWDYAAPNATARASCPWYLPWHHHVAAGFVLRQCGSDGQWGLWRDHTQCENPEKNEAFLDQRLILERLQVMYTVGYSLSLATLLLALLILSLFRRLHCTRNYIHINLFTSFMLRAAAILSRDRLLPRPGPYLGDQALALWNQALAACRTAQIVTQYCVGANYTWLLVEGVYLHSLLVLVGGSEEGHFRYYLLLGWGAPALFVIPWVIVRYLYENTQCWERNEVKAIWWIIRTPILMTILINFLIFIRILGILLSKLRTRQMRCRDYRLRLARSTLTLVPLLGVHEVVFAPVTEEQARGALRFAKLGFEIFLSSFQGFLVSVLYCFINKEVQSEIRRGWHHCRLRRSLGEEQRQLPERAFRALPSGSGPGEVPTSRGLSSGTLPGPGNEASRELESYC
Nature of the assay: In vitro receptor activation reporter assay (CRE-Luc), HEK293-GIPR-CRE. It is filed as cell-based.
Excerpt: HEK293 cells were infected with lentivirus encoding firefly luciferase gene under the control of cAMP responsive element (CRE) promoter (Qiagen, The Netherlands) and then were selected using 1 g mL^−1 puromycin (Life Technologies, Carlsbad) for 1 week. The surviving cells (referred to as CRE-HEK293) were expanded and then transfected with a G418 selective mammalian expression plasmid encoding human GLP-1R or GIPR. In brief, GLP-1R or GIPR plasmid was transfected into CRE-HEK293 cells using Lipofectamine 2000 and selected with 400 g mL^−1 Geneticin (Life Technologies, Carlsbad, CA). Single colony stable cell line overexpressing CRE-luciferase and GLP-1R or GIPR (HEK293-GLP-1R-CRE or HEK293-GIPR-CRE) was then established for in vitro activity assay.
as §1

Where [3] appears, read: Table 8, read-out: EC50 [nM] GLP1R.
[4] abbreviates: Table 8, read-out: EC50 [nM] GIPR.

T1 sequence (P43220 24-463): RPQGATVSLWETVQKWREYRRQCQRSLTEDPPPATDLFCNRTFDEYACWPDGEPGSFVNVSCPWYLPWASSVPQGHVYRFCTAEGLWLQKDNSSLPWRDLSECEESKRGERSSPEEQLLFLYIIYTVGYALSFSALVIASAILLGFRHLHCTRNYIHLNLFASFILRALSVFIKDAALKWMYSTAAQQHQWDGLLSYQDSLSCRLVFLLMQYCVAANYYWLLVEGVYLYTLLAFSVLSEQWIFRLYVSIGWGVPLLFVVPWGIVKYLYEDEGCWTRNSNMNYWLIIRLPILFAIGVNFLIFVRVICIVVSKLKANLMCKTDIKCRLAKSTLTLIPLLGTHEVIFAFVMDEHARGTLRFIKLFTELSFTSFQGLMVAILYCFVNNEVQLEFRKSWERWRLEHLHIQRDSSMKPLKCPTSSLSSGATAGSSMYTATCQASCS

Turning to `CC[C@H](C)[C@H](NC(=O)[C@H](CC(C)C)NC(=O)[C@H](Cc1c[nH]c2ccccc12)NC(=O)[C@@H]1CSCC(=O)NCCN(C(=O)CCC(=O)NCCOCCOCCC(=O)NCCOCCOCCC(=O)NCCCC[C@H](NC(=O)CCCCCCCCCCCCCCCCCCC(=O)O)C(=O)O)CCNC(=O)CSC[C@H](NC(=O)[C@H](CCCCN)NC(=O)[C@H](CC(=O)O)NC(=O)[C@H](CC(C)C)NC(=O)[C@H](Cc2ccc(O)cc2)NC(=O)[C@@H](NC(=O)[C@H](CO)NC(=O)[C@H](Cc2ccc(O)cc2)NC(=O)[C@H](CC(=O)O)NC(=O)[C@H](CC(N)=O)NC(=O)[C@@H](NC(=O)[C@H](Cc2ccc(O)cc2)NC(=O)[C@@H](NC(=O)CNC(=O)[C@H](CCC(=O)O)NC(=O)C(C)(C)NC(=O)[C@@H](N)Cc2ccc(O)cc2)[C@@H](C)O)[C@@H](C)O)[C@@H](C)CC)C(=O)N[C@@H](C)C(=O)N[C@@H](C)C(=O)NC(C)(C)C(=O)N[C@@H](CCC(=O)O)C(=O)N[C@@H](Cc2ccccc2)C(=O)N[C@@H](C(C)C)C(=O)N1)C(=O)N[C@@H](C)C(=O)NCC(=O)NCC(=O)N1CCC[C@H]1C(=O)N[C@@H](CO)C(=O)N[C@@H](CO)C(=O)NCC(=O)N[C@@H](C)C(=O)N1CCC[C@H]1C(=O)N1CCC[C@H]1C(=O)N1CCC[C@H]1C(=O)N[C@@H](CO)C(N)=O` [6Y, 8N, 27I, C(17-24) - C20L5A, YAibEGT-YTNDY-SIYLD-KXAAAib-EFVXW-LIAGG-PSSGA-PPPS-NH2 (where each X is C)] (H-Y[Aib]EGTYTNDYSIYLDKCAA[Aib]EFVCWLIAGGPSSGAPPPS-NH2; linker 17-24 via X2), the EC50 was 0.08 nM in assay [1] (unnumbered table (Table 10), average of runs, read-out: GLP1R (nM) [EC50] average); 0.06 nM in assay [1] (unnumbered table (Table 10), run 02/19, read-out: GLP1R (nM) [EC50] 02/19); 0.11 nM in assay [1] (unnumbered table (Table 10), run 3/25, read-out: GLP1R (nM) [EC50] 3/25); 0.07 nM in assay [1] (unnumbered table (Table 10), run 03/26, read-out: GLP1R (nM) [EC50] 03/26); 2.88 nM in assay [2] (unnumbered table (Table 10), average of runs, read-out: GIPR (nM) [EC50] average); 2.48 nM in assay [2] (unnumbered table (Table 10), run 02/19, read-out: GIPR (nM) [EC50] 02/19). Moreover, the EC50 in assay [2] (unnumbered table (Table 10), run 03/26, read-out: GIPR (nM) [EC50] 03/26) is 3.29 nM.
As to `CC[C@H](C)[C@H](NC(=O)[C@H](CC(C)C)NC(=O)[C@H](Cc1c[nH]c2ccccc12)NC(=O)[C@H](CC(N)=O)NC(=O)[C@@H](NC(=O)[C@H](Cc1ccccc1)NC(=O)[C@@H]1CSCC(=O)NCCN(C(=O)CCC(=O)NCCOCCOCCC(=O)NCCOCCOCCC(=O)NCCCC[C@H](NC(=O)CCCCCCCCCCCCCCCCCCC(=O)O)C(=O)O)CCNC(=O)CSC[C@H](NC(=O)[C@H](Cc2ccc(O)cc2)NC(=O)[C@@H](NC(=O)[C@H](CO)NC(=O)[C@H](Cc2ccc(O)cc2)NC(=O)[C@H](CC(=O)O)NC(=O)[C@H](CO)NC(=O)[C@@H](NC(=O)[C@H](Cc2ccc(O)cc2)NC(=O)[C@@H](NC(=O)CNC(=O)[C@H](CCC(=O)O)NC(=O)C(C)(C)NC(=O)[C@@H](N)Cc2ccc(O)cc2)[C@@H](C)O)[C@@H](C)O)[C@@H](C)CC)C(=O)N[C@@H](CC(=O)O)C(=O)N[C@@H](CCCCN)C(=O)N[C@@H](CCC(N)=O)C(=O)N[C@@H](C)C(=O)N[C@@H](C)C(=O)NC(C)(C)C(=O)N1)C(C)C)C(=O)N[C@@H](C)C(=O)NCC(=O)NCC(=O)N1CCC[C@H]1C(=O)N[C@@H](CO)C(=O)N[C@@H](CO)C(=O)NCC(=O)N[C@@H](C)C(=O)N1CCC[C@H]1C(=O)N1CCC[C@H]1C(=O)N1CCC[C@H]1C(=O)N[C@@H](CO)C(N)=O` [6Y, 271, C(14-21) - C20L5A, YAibEGT-YTSDY-SIYXD-KQAAAib-XFVNW-LIAGG-PSSGA-PPPS-NH2 (where each X is C)] (H-Y[Aib]EGTYTSDYSIYCDKQAA[Aib]CFVNWLIAGGPSSGAPPPS-NH2; linker 14-21 via X2), the EC50 in assay [1] (GLP1R (nM) [EC50] 02/19, unnumbered table (Table 10), run 02/19) came to 0.04 nM; in assay [1] (GLP1R (nM) [EC50] 3/25, unnumbered table (Table 10), run 3/25) it was 0.07 nM; in assay [1] (GLP1R (nM) [EC50] 03/26, unnumbered table (Table 10), run 03/26) it was 0.07 nM; in assay [1] (GLP1R (nM) [EC50] average, unnumbered table (Table 10), average of runs) it was 0.06 nM; in assay [2] (GIPR (nM) [EC50] 02/19, unnumbered table (Table 10), run 02/19), 0.5 nM.
Consider `CC[C@H](C)[C@H](NC(=O)[C@H](CC(C)C)NC(=O)[C@H](Cc1c[nH]c2ccccc12)NC(=O)[C@H](CC(N)=O)NC(=O)[C@@H](NC(=O)[C@H](Cc1ccccc1)NC(=O)[C@@H]1CSCC(=O)NCCN(C(=O)CCC(=O)NCCOCCOCCC(=O)NCCOCCOCCC(=O)NCCCC[C@H](NC(=O)CCCCCCCCCCCCCCCCCCC(=O)O)C(=O)O)CCNC(=O)CSC[C@H](NC(=O)[C@H](Cc2ccc(O)cc2)NC(=O)[C@@H](NC(=O)[C@H](CO)NC(=O)[C@@H](NC(=O)[C@H](CC(=O)O)NC(=O)[C@H](CO)NC(=O)[C@@H](NC(=O)[C@H](Cc2ccccc2)NC(=O)[C@@H](NC(=O)CNC(=O)[C@H](CCC(=O)O)NC(=O)C(C)(C)NC(=O)[C@@H](N)Cc2ccc(O)cc2)[C@@H](C)O)[C@@H](C)CC)C(C)C)[C@@H](C)CC)C(=O)N[C@@H](CC(=O)O)C(=O)N[C@@H](CCCCN)C(=O)N[C@@H](CCC(N)=O)C(=O)N[C@@H](C)C(=O)N[C@@H](C)C(=O)NC(C)(C)C(=O)N1)C(C)C)C(=O)N[C@@H](C)C(=O)NCC(=O)NCC(=O)N1CCC[C@H]1C(=O)N[C@@H](CO)C(=O)N[C@@H](CO)C(=O)NCC(=O)N[C@@H](C)C(=O)N1CCC[C@H]1C(=O)N1CCC[C@H]1C(=O)N1CCC[C@H]1C(=O)N[C@@H](CO)C(N)=O` [7I, 10V, 27I, C(14-21) - C20L5A, YAibEGT-FISDV-SIYXD-KQAAAib-XFVNW-LIAGG-PSSGA-PPPS-NH2 (where each X is C)] (H-Y[Aib]EGTFISDVSIYCDKQAA[Aib]CFVNWLIAGGPSSGAPPPS-NH2; linker 14-21 via X2), for which the EC50 in assay [1] (setting [3]) was around 13700 nM; in assay [2] (setting [4]) it was 303 nM.
Turning to `CC[C@H](C)[C@H](NC(=O)[C@H](CC(C)C)NC(=O)[C@H](Cc1c[nH]c2ccccc12)NC(=O)[C@H](CC(N)=O)NC(=O)[C@@H](NC(=O)[C@H](Cc1ccccc1)NC(=O)[C@@H]1CSCC(=O)NCCN(C(=O)CCC(=O)NCCOCCOCCC(=O)NCCOCCOCCC(=O)NCCCC[C@H](NC(=O)CCCCCCCCCCCCCCCCC(=O)O)C(=O)O)CCNC(=O)CSC[C@H](NC(=O)[C@H](Cc2ccc(O)cc2)NC(=O)[C@@H](NC(=O)[C@H](CO)NC(=O)[C@@H](NC(=O)[C@H](CC(=O)O)NC(=O)[C@H](CO)NC(=O)[C@@H](NC(=O)[C@H](Cc2ccccc2)NC(=O)[C@@H](NC(=O)CNC(=O)[C@H](CCC(=O)O)NC(=O)C(C)(C)NC(=O)[C@@H](N)Cc2ccc(O)cc2)[C@@H](C)O)[C@@H](C)CC)C(C)C)[C@@H](C)CC)C(=O)N[C@@H](CC(=O)O)C(=O)N[C@@H](CCCCN)C(=O)N[C@@H](CCC(N)=O)C(=O)N[C@@H](C)C(=O)N[C@@H](C)C(=O)NC(C)(C)C(=O)N1)C(C)C)C(=O)N[C@@H](C)C(=O)NCC(=O)NCC(=O)N1CCC[C@H]1C(=O)N[C@@H](CO)C(=O)N[C@@H](CO)C(=O)NCC(=O)N[C@@H](C)C(=O)N1CCC[C@H]1C(=O)N1CCC[C@H]1C(=O)N1CCC[C@H]1C(=O)N[C@@H](CO)C(N)=O` [7I, 10V, 27I, C(14-21) - L5A, YAibEGT-FISDV-SIYXD-KQAAAib-XFVNW-LIAGG-PSSGA-PPPS-NH2 (where each X is C)] (H-Y[Aib]EGTFISDVSIYCDKQAA[Aib]CFVNWLIAGGPSSGAPPPS-NH2; linker 14-21 via X1), the EC50 in assay [1] (setting [3]) was 83.9 nM; in assay [2] (setting [4]), 12.5 nM.
For the compound `CC[C@H](C)[C@H](NC(=O)[C@H](CC(C)C)NC(=O)[C@H](Cc1c[nH]c2ccccc12)NC(=O)[C@H](CC(N)=O)NC(=O)[C@@H](NC(=O)[C@H](Cc1ccccc1)NC(=O)[C@@H]1CSCC(=O)NCCN(C(=O)CCC(=O)NCCOCCOCCC(=O)NCCOCCOCCC(=O)NCCCC[C@H](NC(=O)CCCCCCCCCCCCCCCCC(=O)O)C(=O)O)CCNC(=O)CSC[C@H](NC(=O)[C@H](Cc2ccc(O)cc2)NC(=O)[C@@H](NC(=O)[C@H](CO)NC(=O)[C@H](Cc2ccc(O)cc2)NC(=O)[C@H](CC(=O)O)NC(=O)[C@H](CO)NC(=O)[C@@H](NC(=O)[C@H](Cc2ccccc2)NC(=O)[C@@H](NC(=O)CNC(=O)[C@H](CCC(=O)O)NC(=O)C(C)(C)NC(=O)[C@@H](N)Cc2ccc(O)cc2)[C@@H](C)O)[C@@H](C)O)[C@@H](C)CC)C(=O)N[C@@H](CC(=O)O)C(=O)N[C@@H](CCCCN)C(=O)N[C@@H](CCC(N)=O)C(=O)N[C@@H](C)C(=O)N[C@@H](C)C(=O)NC(C)(C)C(=O)N1)C(C)C)C(=O)N[C@@H](C)C(=O)NCC(=O)NCC(=O)N1CCC[C@H]1C(=O)N[C@@H](CO)C(=O)N[C@@H](CO)C(=O)NCC(=O)N[C@@H](C)C(=O)N1CCC[C@H]1C(=O)N1CCC[C@H]1C(=O)N1CCC[C@H]1C(=O)N[C@@H](CO)C(N)=O` [27I, C(14-21) - L5A, YAibEGT-FTSDY-SIYXD-KQAAAib-XFVNW-LIAGG-PSSGA-PPPS-NH2 (where each X is C)], the EC50 in assay [1] (setting [3]) turned out to be 0.04 nM; in assay [2] (setting [4]), 0.03 nM.
